Data from publication PMC12424289, “Programmable Nanostructure Assembly of a Paclitaxel Derivative Enables Tunable Anticancer Therapy via Hydrogen Bond Engineering” (ACS Nano, 2025).

What was measured:
[1] = test system: human colon HCT116-Luc cells; experiment: CCK8 antiproliferation assay, HCT116-Luc; assay type: cell-based; details: 48 h treatment
Description: (§1) The mouse breast cancer cell line 4T1 and the human ovarian cancer cell line SKOV3 were cultured in RPMI 1640 medium supplemented with 10% fetal bovine serum, 100 units·mL^–1 penicillin, and 100 μg·mL^–1 streptomycin. The human lung cancer cell line A549 and the luciferase-expressing human colorectal carcinoma cell line HCT116-Luc were cultured in high-glucose DMEM medium supplemented with 10% fetal bovine serum, 100 units·mL^–1 penicillin, and 100 μg·mL^–1 streptomycin. All cell lines were maintained at 37 °C in a Steri-Cycle 371 incubator (Thermo Scientific, USA) with a humidified atmosphere of 5% CO2. Only cells between passages 5 and 15 were used for cell-based experiments.
(§2) The antiproliferative activity of PTP was evaluated using the Cell Counting Kit-8 (CCK8) assay. PTX solution served as a positive control. Cell suspensions were prepared at a density of 3 × 10^4 cells·mL^–1 and seeded in 96-well plates at a volume of 100 μL per well. The plates were incubated for 24 h to allow cell attachment and growth. Subsequently, the culture media were replaced with fresh media containing varying concentrations of PTX or PTP solutions (100 μL per well), and the cells were incubated for an additional 48 h (n = 3). Control wells received fresh culture media alone (n = 3). […] Finally, the absorbance was measured at 450 nm using a microplate reader (Synergy H1, BioTek, USA). […]

[2] = test system: human ovarian SKOV3 cells; experiment: CCK8 antiproliferation assay, SKOV3; assay type: cell-based; details: SK-OV-3, SKOV3, 48 h treatment
Description: as §1, §2

mouse breast 4T1 cells = experiment: CCK8 antiproliferation assay, 4T1; assay type: cell-based; details: 4T1, 48 h treatment
Description: as §1, §2

human lung A549 cells = experiment: CCK8 antiproliferation assay, A549; assay type: cell-based; details: A549, 48 h treatment
Description: as §1, §2

tubulin = experiment: Isothermal titration calorimetry with tubulin; assay type: binding; details: tubulin 180 μM titrated into 25 μM compound
Description: ITC experiments were performed using a Nano-ITC (TA Instruments, USA) with all samples degassed for 8 min prior to measurement. Experiments were conducted under stirring at 350 rpm. To account for background signals, control experiments were conducted and subtracted from the test data. The resulting heat values were analyzed using an independent model to extract thermodynamic parameters. For tubulin binding studies, solutions were prepared in PEM buffer containing 5% (v/v) DMSO. In each experiment, 400 μL of the […] was loaded into the sample cell, and 400 μL of PEM buffer with 5% (v/v) DMSO was placed in the reference cell. Tubulin solution (180 μM) was titrated into the sample cell in 25 injections of 2 μL each at 4 °C. A control titration of tubulin into PEM buffer (5% DMSO) was performed to account for dilution effects. To assess interactions between PTP and excipients, PTP dispersions (25 μM) were loaded into the sample cell, and water was used in the reference cell. PEG400 solution (6.0 mg·mL^–1) was titrated into a 2.0 mg·mL^–1 PTP dispersion, and HA (2.7 mg·mL^–1) into a 1.0 mg·mL^–1 PTP dispersion. Both titrations were performed at 25 °C with 25 injections of 2 μL each. Control experiments were performed by titrating PEG400 or HA into water to correct for nonspecific heat effects.

Balb/c mice = experiment: Maximum tolerated dose / survival in mice; assay type: in vivo, mouse; details: iv, PTX 33.0 mg·kg^–1, after 14 days
[3] = Pharmacokinetics after intraperitoneal injection; assay type: in vivo; details: male, Sprague-Dawley, rat, plasma; rats, single ip; PTP@HA 100.0 mg·kg^–1 PTP, PTX solution 12.0 mg·kg^–1
Description: For plasma samples, 50 μL of plasma was mixed with 100 μL of a docetaxel acetonitrile solution (15 ng·mL^–1) for protein precipitation. The mixture was vortexed and then centrifuged at 4 °C, 17 000 rpm for 30 min. For tissue samples, mice were euthanized at specified time points, and tissues were harvested and rinsed with saline. Two kidneys, the entire heart, spleen, lung, tumor, and 150–200 mg of liver were placed in grinding tubes. Saline was added at a ratio of 1:5 (m/v), and the tissues were ground using a freezing grinder (Jingxin, China) at 4 °C. Next, 100 μL of docetaxel acetonitrile solution (15 ng·mL^–1) was added to 50 μL of the tissue homogenate. After vortex mixing, the mixture was centrifuged at 4 °C, 17 000 rpm for 30 min. The supernatants for both plasma and tissue samples were analyzed by LC-MS as described below.
The concentrations of PTP and PTX in plasma and tissue samples were determined using liquid chromatography–mass spectrometry (LC-MS) with a G6470A system (Agilent, USA) equipped with a C18 column (2.1 × 100 mm, 2.7 μm, Agilent, USA). […]
The PTP@HA hydrogel, containing PTP at a concentration of 5.0 mg·mL^–1, was prepared by adding HA saline solution (20.0 mg·mL^–1) to solid PTP, followed by vortexed for 1 min. […] Plasma concentrations of both PTP and PTX were subsequently quantified using LC-MS (G6470A, Agilent, USA).

**Q.** Which IC50 [1] does the source give for `CC(=O)O[C@H]1C(=O)[C@@]2(C)[C@H]([C@H](OC(=O)c3ccccc3)[C@]3(O)C[C@H](OC(=O)[C@H](O)[C@@H](NC(=O)c4ccccc4)c4ccccc4)C(C)=C1C3(C)C)[C@]1(OC(C)=O)CO[C@@H]1C[C@@H]2O` [PTX, Paclitaxel] here?
**A.** 13.1 nM

**Q.** What about the IC50 [2] of the same compound?
**A.** 37.4 nM

**Q.** And the IC50 (mouse breast 4T1 cells)?
**A.** 25.9 nM

**Q.** What about the IC50 (human lung A549 cells) of the same compound?
**A.** 11.3 nM

**Q.** And the “molar ratio of tubulin to compound” value (tubulin; ITC)?
**A.** 1.5

**Q.** And the “Gibbs free energy change (ΔG)” value (tubulin; 5% DMSO, 4 °C)?
**A.** −27.0 kJ·mol^–1

**Q.** And the survival (Balb/c mice)?
**A.** 83.3%

**Q.** What about the MRT [3] of the same compound?
**A.** 4.4 h

**Q.** And the half-life [3]?
**A.** 3.2 h
